The values below come from patent US20250213555A1, “SUBSTITUTED TETRAHYDROFURAN ANALOGS AS MODULATORS OF SODIUM CHANNELS” (VERTEX PHARMACEUTICALS INCORPORATED, priority 2021, published 2025).

human Nav 1.8, sequence (Q9Y5Y9 126-399 limits assumed): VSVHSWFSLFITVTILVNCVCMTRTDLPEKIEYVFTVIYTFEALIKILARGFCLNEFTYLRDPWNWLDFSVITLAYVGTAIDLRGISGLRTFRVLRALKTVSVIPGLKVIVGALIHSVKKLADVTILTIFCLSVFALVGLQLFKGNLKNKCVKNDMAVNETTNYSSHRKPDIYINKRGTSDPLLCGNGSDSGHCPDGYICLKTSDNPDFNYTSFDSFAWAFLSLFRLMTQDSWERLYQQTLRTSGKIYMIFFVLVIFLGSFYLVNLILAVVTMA
human Nav 1.8, sequence (Q9Y5Y9 660-890 limits assumed): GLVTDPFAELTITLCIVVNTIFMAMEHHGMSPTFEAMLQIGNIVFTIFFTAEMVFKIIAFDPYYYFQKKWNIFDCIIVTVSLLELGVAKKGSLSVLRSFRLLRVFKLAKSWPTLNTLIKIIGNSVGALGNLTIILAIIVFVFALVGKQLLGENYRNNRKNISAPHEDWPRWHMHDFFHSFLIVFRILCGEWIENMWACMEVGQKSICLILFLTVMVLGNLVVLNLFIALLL
human Nav 1.8, sequence (Q9Y5Y9 1148-1722 limits assumed): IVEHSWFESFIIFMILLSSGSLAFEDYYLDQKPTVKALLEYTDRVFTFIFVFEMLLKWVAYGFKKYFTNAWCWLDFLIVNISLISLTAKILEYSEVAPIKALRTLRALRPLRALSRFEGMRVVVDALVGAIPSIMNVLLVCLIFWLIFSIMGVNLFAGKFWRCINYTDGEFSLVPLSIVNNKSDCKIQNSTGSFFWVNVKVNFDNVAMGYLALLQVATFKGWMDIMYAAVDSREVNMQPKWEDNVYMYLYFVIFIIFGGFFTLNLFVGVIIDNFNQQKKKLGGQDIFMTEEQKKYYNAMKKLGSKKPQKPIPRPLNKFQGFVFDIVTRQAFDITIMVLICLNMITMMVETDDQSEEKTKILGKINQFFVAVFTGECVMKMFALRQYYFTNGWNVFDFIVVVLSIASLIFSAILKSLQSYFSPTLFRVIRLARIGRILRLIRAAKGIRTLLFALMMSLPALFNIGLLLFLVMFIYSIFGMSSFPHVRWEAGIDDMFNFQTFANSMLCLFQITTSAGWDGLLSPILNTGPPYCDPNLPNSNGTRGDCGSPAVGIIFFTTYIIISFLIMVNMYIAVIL

The test has as its target human Nav 1.8 (Homo sapiens, UniProt Q9Y5Y9). The experiment in a line: E-VIPR assay detecting and measuring Nav inhibition properties. In kind it is cell-based. Conditions: HEK cells expressing a truncated form of human Nav 1.8; compound numbers without "*" (not marked as run in the presence of human serum); read-out: measured IC50 value in the E-VIPR Assay. The procedure, abridged:
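Nav inhibition was read by E-VIPR: cells were electrically stimulated while coumarin/oxonol FRET emissions were recorded. Cells were HEK expressing a truncated human Nav 1.8 and co-transduced with KIR2.1, and were assayed in 25% final human serum.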
Consider `C[C@H]1[C@@H](c2ccc(F)c(F)c2OCC(=NO)C2CC2)[C@H](C(=O)Nc2ccnc(C(N)=O)c2)O[C@@]1(C)C(F)(F)F` [Compound 182, 4-((2R,3S,4S,5R)-3-(2-(2-cyclopropyl-2-(hydroxyimino)ethoxy)-3,4-difluorophenyl)-4,5-dimethyl-5-(trifluoromethyl)tetrahydrofuran-2-carboxamido) picolinamide], for which the half-inhibitory concentration (IC50) (usually the concentration needed to halve the response being measured) is under 10 nM.

With `C[C@H]1[C@@H](c2ccc(F)c(F)c2OCC(C)(C)CO)[C@H](C(=O)Nc2ccnc(C(N)=O)c2)O[C@@]1(C)C(F)(F)F` [Compound 71, 4-((2R,3S,4S,5R)-3-(3,4-difluoro-2-(3-hydroxy-2,2-dimethylpropoxy)phenyl)-4,5-dimethyl-5-(trifluoromethyl)tetrahydrofuran-2-carboxamido)picolinamide], the IC50 was 100 to 1000 nM.

For the compound `COc1c(C2C(C(=O)Nc3ccnc(C(=O)N4CCC(N(C)C)C4)c3)OC(C)(C(F)(F)F)C2C)ccc(F)c1F` (single isomer, unassigned) [Compound 265, rel-(2R*,3S,*4S*,5R*)-3-(3,4-difluoro-2-methoxyphenyl)-N-(2-(3-(dimethylamino)pyrrolidine-1-carbonyl)pyridin-4-yl)-4,5-dimethyl-5-(trifluoromethyl)tetrahydrofuran-2-carboxamide], the IC50 was under 10 nM.

For the compound `COc1c([C@H]2[C@H](C(=O)Nc3ccnc(C(=O)N[C@H]4CNCC[C@H]4OC)c3)O[C@@](C)(C(F)(F)F)[C@H]2C)ccc(F)c1F` [Compound 246, 4-((2R,3S,4S,5R)-3-(3,4-difluoro-2-methoxyphenyl)-4,5-dimethyl-5-(trifluoromethyl)tetrahydrofuran-2-carboxamido)-N-((3S,4R)-4-methoxypiperidin-3-yl)picolinamide], the IC50 was 100 to 1000 nM.

Turning to `COc1c([C@H]2[C@H](C(=O)Nc3ccnc(C(=O)N4CC5(CNC5)C4)c3)O[C@@](C)(C(F)(F)F)[C@H]2C)ccc(F)c1F` [Compound 228, (2R,3S,4S,5R)-N-(2-(2,6-diazaspiro[3.3]heptane-2-carbonyl)pyridin-4-yl)-3-(3,4-difluoro-2-methoxyphenyl)-4,5-dimethyl-5-(trifluoromethyl)tetrahydrofuran-2-carboxamide], the IC50 is under 10 nM.

`CNC(=O)COc1c([C@H]2[C@H](C(=O)Nc3ccnc(C(N)=O)c3)O[C@@](C)(C(F)(F)F)[C@H]2C)ccc(F)c1F` [Compound 96, 4-((2R,3S,4S,5R)-3-(3,4-difluoro-2-(2-(methylamino)-2-oxoethoxy)phenyl)-4,5-dimethyl-5-(trifluoromethyl)tetrahydrofuran-2-carboxamido)picolinamide]: the IC50 was 10 to 100 nM.

As for `COCCOc1c([C@@H]2C[C@](C)(C(F)(F)F)O[C@H]2C(=O)Nc2ccnc(C(N)=O)c2)ccc(F)c1F` (relative stereo) [Compound 34, rel-4-((2R,3S,5R)-3-(3,4-difluoro-2-(2-methoxyethoxy)phenyl)-5-methyl-5-(trifluoromethyl)tetrahydrofuran-2-carboxamido)picolinamide], the IC50 is under 10 nM.

As for `C[C@]1(C(F)(F)F)C[C@@H](c2ccc(F)c(F)c2OCCO)[C@H](C(=O)Nc2ccnc(C(N)=O)c2)O1` (relative stereo) [Compound 33, rel-4-((2R,3S,5R)-3-(3,4-difluoro-2-(2-hydroxyethoxy)phenyl)-5-methyl-5-(trifluoromethyl)tetrahydrofuran-2-carboxamido)picolinamide], the IC50 lay within 10 to 100 nM.

`COc1c([C@H]2[C@H](C(=O)Nc3cc(C(N)=O)ncc3[Si](C)(C)C)O[C@@](C)(C(F)(F)F)[C@H]2C)ccc(F)c1F` [Compound 23, 4-((2R,3S,4S,5R)-3-(3,4-difluoro-2-methoxyphenyl)-4,5-dimethyl-5-(trifluoromethyl)tetrahydrofuran-2-carboxamido)-5-(trimethylsilyl)picolinamide]: the IC50 fell in the range of 100 to 1000 nM.

As to `COc1c([C@H]2[C@H](C(=O)Nc3ccnc(C(=O)N[C@H]4CNC[C@@H]4OC)c3)O[C@@](C)(C(F)(F)F)[C@H]2C)ccc(F)c1F` [Compound 242, 4-((2R,3S,4S,5R)-3-(3,4-difluoro-2-methoxyphenyl)-4,5-dimethyl-5-(trifluoromethyl)tetrahydrofuran-2-carboxamido)-N-((3S,4S)-4-methoxypyrrolidin-3-yl)picolinamide], the IC50 is 10 to 100 nM.

For the compound `CCO[C@H]1CNC[C@@H]1NC(=O)c1cc(NC(=O)[C@@H]2O[C@@](C)(C(F)(F)F)[C@@H](C)[C@H]2c2ccc(F)c(F)c2OC)ccn1` [Compound 253, 4-((2R,3S,4S,5R)-3-(3,4-difluoro-2-methoxyphenyl)-4,5-dimethyl-5-(trifluoromethyl)tetrahydrofuran-2-carboxamido)-N-((3S,4S)-4-ethoxypyrrolidin-3-yl)picolinamide], the IC50 was in the range of 10 to 100 nM.

On to `COc1c([C@H]2[C@H](C(=O)Nc3ccnc(C(=O)N4CCC(N(C)C)C4)c3)O[C@@](C)(C(F)(F)F)[C@H]2C)ccc(F)c1F` (single isomer, unassigned) [Compound 264, rel-(2R*,3S*,4S*,5R*)-3-(3,4-difluoro-2-methoxyphenyl)-N-(2-(3-(dimethylamino)pyrrolidine-1-carbonyl)pyridin-4-yl)-4,5-dimethyl-5-(trifluoromethyl)tetrahydrofuran-2-carboxamide], for which the IC50 was under 10 nM.

For the compound `COc1c([C@H]2[C@H](C(=O)Nc3ccnc(C(=O)N4C[C@H]5C[C@@H]4CN5)c3)O[C@@](C)(C(F)(F)F)[C@H]2C)ccc(F)c1F` [Compound 254, (2R,3S,4S,5R)-N-(2-((1R,4R)-2,5-diazabicyclo[2.2.1]heptane-2-carbonyl)pyridin-4-yl)-3-(3,4-difluoro-2-methoxyphenyl)-4,5-dimethyl-5-(trifluoromethyl)tetrahydrofuran-2-carboxamide], the IC50 was under 10 nM.

On to `C[C@H]1[C@@H](c2ccc(F)c(F)c2OCc2cncn2C)[C@H](C(=O)Nc2ccnc(C(N)=O)c2)O[C@@]1(C)C(F)(F)F` [Compound 89, 4-((2R,3S,4S,5R)-3-(3,4-difluoro-2-((1-methyl-1H-imidazol-5-yl)methoxy)phenyl)-4,5-dimethyl-5-(trifluoromethyl)tetrahydrofuran-2-carboxamido)picolinamide], for which the 50% inhibitory concentration (IC50) is under 10 nM.

On to `COc1c([C@H]2[C@H](C(=O)Nc3ccnc(C(=O)N4C[C@H]5CC[C@@H](C4)NC5)c3)O[C@@](C)(C(F)(F)F)[C@H]2C)ccc(F)c1F` [Compound 244, (2R,3S,4S,5R)-N-(2-((1S,5S)-3,6-diazabicyclo[3.2.2]nonane-3-carbonyl)pyridin-4-yl)-3-(3,4-difluoro-2-methoxyphenyl)-4,5-dimethyl-5-(trifluoromethyl)tetrahydrofuran-2-carboxamide], for which the IC50 was under 10 nM.

For `C[C@H]1[C@@H](c2ccc(F)c(F)c2OC[C@H]2CC[C@H]2O)[C@H](C(=O)Nc2ccnc(C(N)=O)c2)O[C@@]1(C)C(F)(F)F` (relative stereo) [Compound 99, rel-4-((2R*,3S*,4S*,5R*)-3-(3,4-difluoro-2-(((1R,2R)-2-hydroxycyclobutyl)methoxy)phenyl)-4,5-dimethyl-5-(trifluoromethyl)tetrahydrofuran-2-carboxamido)picolinamide], the IC50 was in the range of 10 to 100 nM.

Consider `C[C@H](Oc1c([C@H]2[C@H](C(=O)Nc3ccnc(C(N)=O)c3)O[C@@](C)(C(F)(F)F)[C@H]2C)ccc(F)c1F)C1COC1` [Compound 158, 4-((2R,3S,4S,5R)-3-(3,4-difluoro-2-((S)-1-(oxetan-3-yl)ethoxy)phenyl)-4,5-dimethyl-5-(trifluoromethyl)tetrahydrofuran-2-carboxamido)picolinamide], for which the IC50 was under 10 nM.

Consider `C[C@H]1[C@@H](c2ccc(F)c(F)c2OCC(CO)C(F)(F)F)[C@H](C(=O)Nc2ccnc(C(N)=O)c2)O[C@@]1(C)C(F)(F)F` (stereo partly drawn) [Compound 169, 4-((2R,3S,4S,5R)-3-(3,4-difluoro-2-(3,3,3-trifluoro-2-(hydroxymethyl)propoxy)phenyl)-4,5-dimethyl-5-(trifluoromethyl)tetrahydrofuran-2-carboxamido)picolinamide], for which the IC50 is under 10 nM.

As for `COc1c(C2CC3(COC3)OC2C(=O)Nc2ccnc(C(N)=O)c2)ccc(F)c1C` (single isomer, unassigned) [Compound 24], the IC50 was at least 1000 nM.

With `COc1c([C@H]2[C@H](C(=O)Nc3ccnc(C(=O)N4C[C@H]5CC[C@@H](C4)N(C)C5)c3)O[C@@](C)(C(F)(F)F)[C@H]2C)ccc(F)c1F` [Compound 283, (2R,3S,4S,5R)-3-(3,4-difluoro-2-methoxyphenyl)-4,5-dimethyl-N-(2-((1S,5S)-6-methyl-3,6-diazabicyclo[3.2.2]nonane-3-carbonyl)pyridin-4-yl)-5-(trifluoromethyl)tetrahydrofuran-2-carboxamide], the IC50 was under 10 nM.

As to `COc1c([C@H]2[C@H](C(=O)Nc3cc(C(=O)N4CCN(C)CC4)ncn3)O[C@@](C)(C(F)(F)F)[C@H]2C)ccc(F)c1F` [Compound 22, (2R,3S,4S,5R)-3-(3,4-difluoro-2-methoxyphenyl)-4,5-dimethyl-N-(6-(4-methylpiperazine-1-carbonyl)pyrimidin-4-yl)-5-(trifluoromethyl)tetrahydrofuran-2-carboxamide], the IC50 lay in the range of 100 to 1000 nM.

On to `COc1c([C@H]2[C@H](C(=O)Nc3ccnc(C(=O)N4CCNCC4)n3)O[C@@](C)(C(F)(F)F)[C@H]2C)ccc(F)c1F` [Compound 19, (2R,3S,4S,5R)-3-(3,4-difluoro-2-methoxyphenyl)-4,5-dimethyl-N-(2-(piperazine-1-carbonyl)pyrimidin-4-yl)-5-(trifluoromethyl)tetrahydrofuran-2-carboxamide], for which the IC50 lay in the range of 10 to 100 nM.

For `COc1c([C@H]2[C@H](C(=O)Nc3ccnc(C(=O)N4CCN(C)[C@H]5C[C@H]54)c3)O[C@@](C)(C(F)(F)F)[C@H]2C)ccc(F)c1F` (single isomer, unassigned) [Compound 294, rel-(2R*,3S*,4S*,5R*)-3-(3,4-difluoro-2-methoxyphenyl)-4,5-dimethyl-N-(2-((1R,6S)-5-methyl-2,5-diazabicyclo[4.1.0]heptane-2-carbonyl)pyridin-4-yl)-5-(trifluoromethyl)tetrahydrofuran-2-carboxamide], the IC50 was under 10 nM.
